# What was measured:
# HL60/RV, MDR + AML = test: In vitro assays - tubulysin free drugs, CellTiter-Glo growth inhibition; format: cell-based
# Description: (§1) In vitro assays. Cells cultured in log-phase growth were seeded for 24 h in 96-well plates containing 150 μL RPMI 1640 supplemented with 20% FBS. Serial dilutions of antibody-drug conjugates in cell culture media were prepared at 4× working concentrations; 50 μL of each dilution was added to the 96-well plates. Following addition of ADC, cells were incubated with test articles for 4 d at 37° C. After 96 h, growth inhibition was assessed by CellTiter-Glo® (Promega, Madison, WI) and luminescence was measured on a plate reader. The IC50 value, determined in triplicate, is defined here as the concentration that results in a 50% reduction in cell growth relative to untreated controls.
# (§2) In vitro assays—tubulysin free drugs. Cells were treated for 96 hours with tubulysin ether analogs (40-42) or tubulysin M (7), then assessed for viability as described in the methods.
# (§3) The tubulysin ester analogs (133-137) and unsaturated ether analogs (176-179) were tested in vitro for potency relative to tubulysin M (7), following a 96 hour exposure. As shown by IC50 values (nM) of Table 2, Tubulysin esters 133-136 performed comparably to tubulysin M, with similar potencies across of the cell lines.
# (§4) A series of analogues of the ethyl ether tubulysin compound TubOEt (41) were synthesized on solid phase lanterns that maintain the ethyl ether substitution, while either varying the residue at the Ile position (203-215) or the Mep position (216-221). Following cleavage from the solid phase, the analogues were obtained in >85% purity and tested without further purification. The compounds were tested in vitro for potency relative to a sample of TubOEt synthesized in parallel on a lantern (41-lantern), following a 96 hour exposure, with IC5O values expressed in nM (Table 3). While in many cases an attenuation in activity was observed relative to 41-lantern, some well-tolerated substitutions were found. […] While this stereochemical preference is not observed when Ile is replaced with O-methyl threonine (207) or O-methyl allothreonine (206), bulkier substituents led to a greater differentiation. […] Replacement of the Mep residue was generally less-well tolerated.
# L540cy, HL [1] = test: as above; format: cell-based
# Description: as §1, §2, §3, §4
# HL60, AML = test: as above; format: cell-based
# Description: as §1, §2, §3, §4
# HepG2, HCC = test: In vitro assays - TubOEt analogues, CellTiter-Glo growth inhibition; format: cell-based; conditions: Homo sapiens, Table 3, lantern-made analogues >85% purity, 96 hour exposure
# Description: as §1, §4
# Ramos, NHL = test: as above; format: cell-based; conditions: Homo sapiens, Table 3, lantern-made analogues >85% purity, 96 hour exposure
# Description: as §1, §4
# U266 MM = test: as above; format: cell-based; conditions: Homo sapiens, U-266; Table 3; lantern-made analogues >85% purity, 96 hour exposure
# Description: as §1, §4
# [2] = test system: HepG2, L540cy, Ramos, U266, HL60, HL60/RV cell lines; test: In vitro assays - TubOEt analogues, statements across the cell line panel; format: cell-based; conditions: Table 3 cell lines, 96 hour exposure
# Description: as §1, §4
# L428, MDR + HL [3] = conditions: Table 4; cAC10 ADCs DAR 8, 96 h
# Description: (§5) In vitro assays. Cells cultured in log-phase growth were seeded for 24 h in 96-well plates containing 150 μL RPMI 1640 supplemented with 20% FBS. Serial dilutions of antibody-drug conjugates in cell culture media were prepared at 4× working concentrations; 50 μL of each dilution was added to the 96-well plates. […] After 96 h, growth inhibition was assessed by CellTiter-Glo® (Promega, Madison, WI) and luminescence was measured on a plate reader.
# (§6) In vitro assays—tubulysin ADCs. ADCs were prepared by t Ell reduction of interchain disulfides to reveal 8-conjugatable cysteines/antibody that were alkylated through Michael addition with the maleimide-containing Drug Linker compounds. […] conjugates hearing quaternized tubulysin ethers with and without a PEG12 side-chain were compared to their tubulysin M analogs.
# (§7) Several hydrophilic linker constructs incorporating quaternized tubulysin M were prepared and evaluated in vitro; the results are shown in Table 5. The data (IC50 values in ng/mL) indicate that Conjugates prepared from Drug Linker compounds having quaternized tubulysin M linked via a hydrophilic ValGlu dipeptide with (95) or without (91) a PEG12 side chain, or linked via a hydrophilic glucuronide (82) provide ADCs that are equipotent to the ValAla comparator (15).
# DEL/BVR, MDR + ALCL = conditions: Table 4; cAC10 ADCs DAR 8, 96 h
# Description: as §5, §6, §7
# L540cy, HL [4] = conditions: Table 4; cAC10 ADCs DAR 8, 96 h
# Description: as §5, §6, §7
# L428, MDR + HL [5] = test: In vitro assays - tubulysin free drugs, CellTiter-Glo growth inhibition; format: cell-based; conditions: free drug
# Description: as §1, §2, §3
# Karpas299, ALCL = test: as above; format: cell-based; conditions: free drug
# Description: as §1, §2, §3
# [6] = Homo sapiens, HL-60, 96 h, Table 3, lantern-made analogues >85% purity, 96 hour exposure
# [7] = L540cy, 96 h, Table 3, lantern-made analogues >85% purity, 96 hour exposure
# [8] = Table 1 (examples), free drug, 96 hours
# [9] = Homo sapiens, HL-60, 96 h, Table 1 (examples), free drug, 96 hours
# [10] = L540cy, 96 h, Table 1 (examples), free drug
# [11] = Homo sapiens, L-428, 96 h, Table 1 (examples), 96 hours
# [12] = Homo sapiens, KARPAS-299, 96 h, Table 1 (examples), 96 hours
# [13] = Homo sapiens, HL-60, 96 h, Table 2, free drug, 96 hour exposure
# [14] = L540cy, 96 h, Table 2, free drug, 96 hour exposure
# [15] = Homo sapiens, L-428, 96 h, Table 2, 96 hour exposure
# [16] = Homo sapiens, KARPAS-299, 96 h, Table 2, 96 hour exposure
SMILES,"IC50 (HL60/RV, MDR + AML; [6]) [nM]","IC50 (L540cy, HL [1]; [7]) [nM]","IC50 (HL60, AML; [6]) [nM]","IC50 (HepG2, HCC) [nM]","IC50 (Ramos, NHL) [nM]",IC50 (U266 MM) [nM],"potency / cytotoxicity of TubOEt analogues, in words [2]",other results
"CCO[C@H](C[C@H](C(C)C)N(C)C(=O)[C@@H](NC(=O)[C@@]1(C)CCCN1C)[C@@H](C)CC)c1nc(C(=O)N[C@@H](Cc2ccccc2)C[C@H](C)C(=O)O)cs1 [Compound 221, (2S,4R)-4-(2-((1R,3R)-3-((2S,3S)-2-((R)-1,2-dimethylpyrrolidine-2-carboxamido)-N,3-dimethylpentanamido)-1-ethoxy-4-methylpentyl)thiazole-4-carboxamido)-2-methyl-5-phenylpentanoic acid]",522,1,12,4,1,2,most potent compounds obtained in this series,
"CCO[C@H](C[C@H](C(C)C)N(C)C(=O)[C@@H](NC(=O)[C@H]1CCCCN1C)C1CCCCC1)c1nc(C(=O)N[C@@H](Cc2ccccc2)C[C@H](C)C(=O)O)cs1 [Compound 205, (2S,4R)-4-(2-((1R,3R)-3-((S)-2-cyclohexyl-N-methyl-2-((R)-1-methylpiperidine-2-carboxamido)acetamido)-1-ethoxy-4-methylpentyl)thiazole-4-carboxamido)-2-methyl-5-phenylpentanoic acid]",177,1,2,7,0.5,0.5,potent,
CCO[C@H](C[C@H](C(C)C)N(C)C(=O)[C@@H](NC(=O)[C@H]1[C@H]2CC[C@H](CC2)N1C)[C@@H](C)CC)c1nc(C(=O)N[C@@H](Cc2ccccc2)C[C@H](C)C(=O)O)cs1 [Compound 218],> 1000,5,24,9,6,7,decrease in the observed cytotoxicity,
"CCO[C@H](C[C@H](C(C)C)N(C)C(=O)[C@@H](NC(=O)[C@H]1CCCCN1C)C1CCCC1)c1nc(C(=O)N[C@@H](Cc2ccccc2)C[C@H](C)C(=O)O)cs1 [Compound 204, (2S,4R)-4-(2-((1R,3R)-3-((S)-2-cyclopentyl-N-methyl-2-((R)-1-methylpiperidine-2-carboxamido)acetamido)-1-ethoxy-4-methylpentyl)thiazole-4-carboxamido)-2-methyl-5-phenylpentanoic acid]",40,0.4,1,2,0.2,0.1,potent,
CCCO[C@H](C[C@H](C(C)C)N(C)C(=O)[C@@H](NC(=O)[C@H]1CCCC[N+]1(C)Cc1ccc(O[C@@H]2O[C@H](C(=O)O)[C@@H](O)[C@H](O)[C@H]2O)c(NC(=O)CCNC(=O)[C@H](CN)N2C(=O)C=CC2=O)c1)[C@@H](C)CC)c1nc(C(=O)N[C@@H](Cc2ccccc2)C[C@H](C)C(=O)O)cs1 (some centres unmarked) [Compound 58],,,,,,,,"IC50, L428, MDR + HL (L428, MDR + HL [3]): 0.117 µg/mL; IC50, DEL/BVR, MDR + ALCL (DEL/BVR, MDR + ALCL): 0.01 µg/mL; IC50, L540cy, HL (L540cy, HL [4]): 0.006 µg/mL"
"CCO[C@H](C[C@H](C(C)C)N(C)C(=O)[C@@H](NC(=O)C1CCC(F)(F)CN1C)[C@@H](C)CC)c1nc(C(=O)N[C@@H](Cc2ccccc2)C[C@H](C)C(=O)O)cs1 (stereo partly drawn) [Compound 216, (2S,4R)-4-(2-((1R,3R)-3-((2S,3S)-2-(5,5-difluoro-1-methylpiperidine-2-carboxamido)-N,3-dimethylpentanamido)-1-ethoxy-4-methylpentyl)thiazole-4-carboxamido)-2-methyl-5-phenylpentanoic acid]",> 1000,12,61,58,10,9,decrease in the observed cytotoxicity,
"CCCO[C@H](C[C@H](C(C)C)N(C)C(=O)[C@@H](NC(=O)[C@H]1CCCCN1C)[C@@H](C)CC)c1nc(C(=O)N[C@@H](Cc2ccccc2)C[C@H](C)C(=O)O)cs1 [Compound 42, (2S,4R)-4-(2-((1R,3R)-3-((2S,3S)—N,3-dimethyl-2-((R)-1-methylpiperidine-2-carboxamido)pentanamido)-4-methyl-1-propoxypentyl)thiazole-4-carboxamido)-2-methyl-5-phenylpentanoic add]",,,,,,,,"IC50 (HL60/RV, MDR + AML; [8]): 14 nM; IC50 (L540cy, HL [1]; [8]): 0.13 nM; IC50 (HL60, AML; [8]): 0.17 nM; IC50 (L428, MDR + HL [5]; Table 1 (examples), 96 hours): 0.4 nM; IC50 (Karpas299, ALCL; Table 1 (examples), 96 hours): 0.15 nM"
"CC[C@H](C)[C@H](NC(=O)[C@H]1CCCCN1C)C(=O)N(C)[C@H](C[C@@H](OC)c1nc(C(=O)N[C@@H](Cc2ccccc2)C[C@H](C)C(=O)O)cs1)C(C)C [Compound 40, (2S,4R)-4-(2-((1R,3R)-3-((2S,3S)—N,3-dimethyl-2-((R)-1-methylpiperidine-2-carboxamido)pentanamido)-1-methoxy-4-methylpentyl)thiazole-4-carboxamido)-2-methyl-5-phenylpentanoic acid]",,,,,,,,"IC50 (HL60/RV, MDR + AML; [9]): 29 nM; IC50 (L540cy, HL [1]; [10]): 0.12 nM; IC50 (HL60, AML; [9]): 0.13 nM; IC50 (L428, MDR + HL [5]; [11]): 0.5 nM; IC50 (Karpas299, ALCL; [12]): 0.19 nM"
"CCC(=O)O[C@H](C[C@H](C(C)C)N(C)C(=O)[C@@H](NC(=O)[C@H]1CCCCN1C)[C@@H](C)CC)c1nc(C(=O)N[C@@H](Cc2ccccc2)C[C@H](C)C(=O)O)cs1 [Compound 133, (2S,4R)-4-(2-((1R,3R)-3-((2S,3S)—N,3-dimethyl-2-((R)-1-methylpiperidine-2-carboxamido)pentanamido)-4-methyl-1-(propionyloxy)pentyl)thiazole-4-carboxamido)-2-methyl-5-phenylpentanoic acid]",,,,,,,,"IC50 (HL60/RV, MDR + AML; [13]): 1 nM; IC50 (L540cy, HL [1]; [14]): 0.06 nM; IC50 (HL60, AML; [13]): 0.1 nM; IC50 (L428, MDR + HL [5]; [15]): 0.04 nM; IC50 (Karpas299, ALCL; [16]): 0.02 nM"
"CC[C@H](C)[C@H](NC(=O)[C@H]1CCCCN1C)C(=O)N(C)[C@H](C[C@@H](OC(C)=O)c1nc(C(=O)N[C@@H](Cc2ccccc2)C[C@H](C)C(=O)O)cs1)C(C)C [Compound 7, tubulysin M, reference compound]",,,,,,,,"IC50 (HL60/RV, MDR + AML; [9]): 2.2 nM; IC50 (HL60/RV, MDR + AML; [13]): 1 nM; IC50 (L540cy, HL [1]; [10]): 0.14 nM; IC50 (L540cy, HL [1]; [14]): 0.08 nM; IC50 (HL60, AML; [9]): 0.3 nM; IC50 (HL60, AML; [13]): 0.15 nM; IC50 (L428, MDR + HL [5]; [11]): 0.11 nM; IC50 (L428, MDR + HL [5]; [15]): 0.04 nM; IC50 (Karpas299, ALCL; [12]): 0.17 nM; IC50 (Karpas299, ALCL; [16]): 0.04 nM"
"CC[C@H](C)[C@H](NC(=O)[C@H]1CCCCN1C)C(=O)N(C)[C@H](C[C@@H](OC(=O)C(C)C)c1nc(C(=O)N[C@@H](Cc2ccccc2)C[C@H](C)C(=O)O)cs1)C(C)C [Compound 135, (2S,4R)-4-(2-((1R,3R)-3-((2S,3S)—N,3-dimethyl-2-((R)-1-methylpiperidine-2-carboxamido)pentanamido)-1-(isobutyryloxy)-4-methylpentyl)thiazole-4-carboxamido)-2-methyl-5-phenylpentanoic acid]",,,,,,,,"IC50 (HL60/RV, MDR + AML; [13]): 6 nM; IC50 (L540cy, HL [1]; [14]): 0.1 nM; IC50 (HL60, AML; [13]): 0.1 nM; IC50 (L428, MDR + HL [5]; [15]): 0.12 nM; IC50 (Karpas299, ALCL; [16]): 0.02 nM"

# From patent US11793880B2, “Conjugates of quaternized tubulysin compounds” (Seagen Inc., priority 2015, dated 2023)
